In patent US6248712A, “Urokinase-type plasminogen activator receptor” (Cancerforskningsfondet af 1989, priority 1995, dated 2001):

What was measured:
U937 cells = assay: Fate of receptor-bound u-PA:PAI-1 complex on U937 cells; format: cell-based, human; details: 0.5 mM chloroquine
Description: Binding assay. […] The cells were then acid-treated in 50 mM glycine-HCl, 100 mM NaCl (pH 3) for 3 minutes at 4° C. and quickly neutralized with half a volume of 0.5 M Hepes, 100 mM NaCl (pH 7.4). […] Non-specific binding was determined in the presence of 100 nM unlabelled u-PA.
The basic experiment was carried out in two steps: first, labelled ligands were incubated with acid-washed cells at 4° C. for 90 minutes (step 1). […] In step 2, the cells were incubated at 37° C. for 3 hours in binding buffer containing no ligands. The amount and the state of the ligand were assayed by quantitation of the radioactivity (and the extent of TCA precipitability) at different times during step 2. To this end, both the radioactivity recovered in the cell-associated form and in the supernatant were measured.

HT-1080 cells [1] = assay: Formation of bound plasmin on HT-1080 cells in serum culture; format: cell-based, human; details: for Bound plasmin activity (%): 10% serum medium, Plg alone = 100%
HT-1080 cells [2] = assay: u-PA activity in medium of HT-1080 cultures (immunocapture assay); format: cell-based; details: Homo sapiens, control = 100%; for activity at 10 µM: TA 10 μM with Plg 40 μg/ml; for activity at 100 µM: TA 100 μM with Plg 40 μg/ml
Description: S. et al., "Enzyme-linked immunosorbent assay for human urokinase-type plasminogen activators and its proenzyme using a combination of monoclonal and polyclonal antibodies", J. […] S. et al., "Monoclonal antibodies to human 54,000 molecular weight plasminogen activator inhibitor from fibrosarcoma cells--inhibitor neutralization and one-step affinity purification", Thromb. […] The coating solution contained 2.5 μg of IgG per ml of 0.1 M sodium carbonate (pH 9.8). After rinsing, the wells were treated with conditioned medium ([…]) for 2 hours at 23° C., then rinsed again. […] The other half (controls) received 50 μl of rinsing buffer (0.05% Tween 20 in PBS). […] The cultures were incubated for the times shown before assay of cell-bound plasmin.

HT-1080 cells [3] = assay: Pro-u-PA index of cell-bound u-PA on HT-1080 cells in serum medium; format: cell-based, human; details: TA 100 μM with Plg 40 μg/ml and anti-PAI-1 antibody 10 μg/ml, 2 h at 37° C.
Description: Cell culture supernatants were assayed for pro-u-PA and active u-PA by the following modification of an immunocapture method (Stephens et al., 1988; Stephens et al., 1987). Microtitre wells of polystyrene immunoplates (type 269620, A/S Nunc, Roskilde, Denmark) were coated overnight at 37° C. with 50 μl of a solution of goat IgG antibodies to human u-PA (cat. # 398, American Diagnostica). The coating solution contained 2.5 μg of IgG per ml of 0.1 M sodium carbonate (pH 9.8). After rinsing, the wells were treated with conditioned medium ([…]) for 2 hours at 23° C., then rinsed again. […] This mixture was incubated for 30 minutes at 37° C., and the absorbancies of the wells were read at 405 nm. […]
Pro-u-PA and active u-PA bound to the cell layer were recovered for immunocapture assays by the same method as was used in the metabolic labelling (see above). […] For conditioned medium and cell-bound u-PA, the u-PA activity assayed after NPGB treatment was expressed as a percentage of the total activity obtained without NPGB treatment, and this percentage used as an index of pro-u-PA content (pro-u-PA index). […]

plasmin [4] = target: T1, plasmin (Homo sapiens, UniProt P00747); assay: Plasmin thioesterase assay (Z-lysine thiobenzyl ester); format: biochemical; details: tranexamic acid 1 mM
plasmin [5] = target: T1, plasmin; assay: Plasmin-catalysed activation of pro-u-PA in solution; format: biochemical; details: tranexamic acid 100 μM; unpublished results
HT-1080 cells [6] = assay: Plasmin binding to and release from HT-1080 cells; format: cell-based, human
Description: Plasmin release from HT-1080 cells into serum-free and serum-containing media. Confluent layers of HT-1080 cells were first loaded with plasmin by incubation for 1 hour at 37° C. in serum-free MEM medium (0.5 ml) containing human plasmin (0-5 μg/ml). After rinsing the cell layers three times, they were incubated for 2 hours at 37° C. with either serum-free medium (.smallcircle.--.smallcircle.), medium containing 10% heat-inactivated and plasminogen-depleted fetal calf serum (.circle-solid.--.circle-solid.), or the latter with tranexamic acid (100 μM) (.box-solid.--.box-solid.). Plasmin was then assayed in the cell-bound fraction (A) and the media (B).
In the Examples concerning plasmin binding to cells from medium, human plasmin (approximately 18 CU/mg; Kabi Diagnostica, Stockholm, Sweden) was added to the cultures at final concentrations of 0-5 μg/ml. The cells were incubated for 3 hours at 37° C. before assay of cell-bound and supernatant plasmin (see below). For plasmin release experiments, cells were loaded for 1 hour at 37° C. with 0-5 μg/ml plasmin in serum-free medium, then rinsed three times with MEM.
Plasmin bound to the cell layer was recovered and assayed as follows. […] Plasmin activity was assayed in eluate samples (50 μl) as above with an incubation time of 3 hours at 37° C.

T1 sequence (P00747 581-810 limits assumed): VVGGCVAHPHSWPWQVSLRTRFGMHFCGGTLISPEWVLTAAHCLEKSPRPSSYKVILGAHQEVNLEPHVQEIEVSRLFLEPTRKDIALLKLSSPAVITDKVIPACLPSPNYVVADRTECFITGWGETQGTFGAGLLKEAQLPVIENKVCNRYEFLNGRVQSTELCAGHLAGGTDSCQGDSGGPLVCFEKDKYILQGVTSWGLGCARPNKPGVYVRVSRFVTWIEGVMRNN
T1 sequence (P00747 97-580 limits assumed): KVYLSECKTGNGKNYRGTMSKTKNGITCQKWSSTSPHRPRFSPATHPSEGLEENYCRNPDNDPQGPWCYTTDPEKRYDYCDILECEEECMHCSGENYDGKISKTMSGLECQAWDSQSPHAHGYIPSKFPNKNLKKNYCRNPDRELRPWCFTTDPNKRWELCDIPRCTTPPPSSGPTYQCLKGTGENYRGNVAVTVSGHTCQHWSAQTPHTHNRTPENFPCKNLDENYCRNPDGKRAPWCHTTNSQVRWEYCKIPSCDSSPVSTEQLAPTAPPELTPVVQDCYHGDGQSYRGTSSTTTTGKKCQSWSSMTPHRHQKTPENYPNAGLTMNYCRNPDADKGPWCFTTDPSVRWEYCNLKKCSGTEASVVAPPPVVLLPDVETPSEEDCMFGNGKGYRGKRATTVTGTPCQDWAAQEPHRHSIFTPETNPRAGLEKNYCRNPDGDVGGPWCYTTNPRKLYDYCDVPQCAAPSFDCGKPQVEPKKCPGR

Compound | Ability of the u-PA:PAI-1 complex to bind to the U937 cells (U937 cells) | Bound plasmin activity (%) (HT-1080 cells [1]; TA 10 μM with Plg 40 μg/ml, 3 h) | Bound plasmin activity (%) (HT-1080 cells [1]; TA 10 μM with Plg 40 μg/ml, 17 h) | Bound plasmin activity (HT-1080 cells [1]; TA 100 μM with Plg 40 μg/ml and anti-PAI-1 antibody 10 μg/ml, 2 h at 37° C.) | Bound plasmin activity (%) (HT-1080 cells [1]; TA 100 μM with Plg 40 μg/ml, 3 h) | Bound plasmin activity (%) (HT-1080 cells [1]; TA 100 μM with Plg 40 μg/ml, 17 h) | activity at 10 µM (HT-1080 cells [2]; 3 h) | activity at 10 µM (HT-1080 cells [2]; 17 h) | activity at 100 µM (HT-1080 cells [2]; 3 h) | activity at 100 µM (HT-1080 cells [2]; 17 h) | Pro-u-PA index (%) (HT-1080 cells [3]) | Effect on the thioesterase activity of plasmin (plasmin [4]) | Ability of plasmin to activate pro-u-PA in solution (plasmin [5]) | Plasmin activity recovered from plasmin-loaded cells (HT-1080 cells [6]; 1 mM tranexamic acid in 10% serum medium, 2 h at 37° C.) | Binding of plasmin to the cells (HT-1080 cells [6]; tranexamic acid 100 μM)
CCN(CC)CCCC(C)Nc1ccnc2cc(Cl)ccc12 (stereo not drawn) [chloroquine] | does not affect | – | – | – | – | – | – | – | – | – | – | – | – | – | –
NC[C@H]1CC[C@H](C(=O)O)CC1 [tranexamic acid] | – | 9.7% | 34% | 0 ng | 2.2% | 13% | 116% | 87% | 92% | 95% | 88% | no effect | does not affect | no plasmin activity could be recovered | completely inhibits
